Measurements published in article PMC3747596 (PLoS ONE, 2013).
Where two headings read alike, the source gives them in different places.

Experiments:
[1] = target: D3 (Homo sapiens, UniProt P35462); assay: Radioligand displacement, D3; format: binding
[2] = target: M3 (Homo sapiens, UniProt P20309); assay: Radioligand displacement, M3; format: binding
[3] = target: H2 (Homo sapiens, UniProt P25021); assay: Radioligand displacement, H2
[4] = target: SERT (Homo sapiens, UniProt P31645); assay: Radioligand displacement, SERT; format: binding
[5] = target: T1, 5-HT3 (Homo sapiens, UniProt P46098); assay: Radioligand displacement, 5-HT3; format: binding
T1 sequence (P46098 24-478): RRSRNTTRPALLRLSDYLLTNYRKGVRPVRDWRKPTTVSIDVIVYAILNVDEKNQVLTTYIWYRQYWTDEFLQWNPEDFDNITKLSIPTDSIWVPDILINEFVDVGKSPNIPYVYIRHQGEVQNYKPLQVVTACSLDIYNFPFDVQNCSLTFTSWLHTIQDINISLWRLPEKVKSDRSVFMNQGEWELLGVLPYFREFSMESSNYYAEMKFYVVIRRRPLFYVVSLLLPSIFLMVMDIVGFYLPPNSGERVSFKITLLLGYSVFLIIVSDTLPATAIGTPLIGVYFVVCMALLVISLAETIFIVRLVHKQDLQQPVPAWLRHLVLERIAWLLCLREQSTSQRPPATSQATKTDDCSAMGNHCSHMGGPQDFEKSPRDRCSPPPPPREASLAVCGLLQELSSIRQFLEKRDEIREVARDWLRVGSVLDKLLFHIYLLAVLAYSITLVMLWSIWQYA

[6] = target: M1 muscarinic receptors (M1-R) (Homo sapiens, UniProt P11229); assay: Radioligand displacement, M1; format: binding
[7] = system: mice; details: mice, cited from earlier work
[8] = target: β2 (Homo sapiens, UniProt P07550); assay: Radioligand displacement, β2; format: binding
[9] = target: D2 (Homo sapiens, UniProt P14416); assay: Radioligand displacement, D2; format: binding
[10] = target: M2 (Homo sapiens, UniProt P08172); assay: biochemical; format: binding
[11] = target: H4 (Homo sapiens, UniProt Q9H3N8); assay: Radioligand displacement, H4; format: binding
[12] = target: T2, α1D (Homo sapiens, UniProt P25100); assay: Radioligand displacement, α1D; format: binding
T2 sequence (P25100 1-572): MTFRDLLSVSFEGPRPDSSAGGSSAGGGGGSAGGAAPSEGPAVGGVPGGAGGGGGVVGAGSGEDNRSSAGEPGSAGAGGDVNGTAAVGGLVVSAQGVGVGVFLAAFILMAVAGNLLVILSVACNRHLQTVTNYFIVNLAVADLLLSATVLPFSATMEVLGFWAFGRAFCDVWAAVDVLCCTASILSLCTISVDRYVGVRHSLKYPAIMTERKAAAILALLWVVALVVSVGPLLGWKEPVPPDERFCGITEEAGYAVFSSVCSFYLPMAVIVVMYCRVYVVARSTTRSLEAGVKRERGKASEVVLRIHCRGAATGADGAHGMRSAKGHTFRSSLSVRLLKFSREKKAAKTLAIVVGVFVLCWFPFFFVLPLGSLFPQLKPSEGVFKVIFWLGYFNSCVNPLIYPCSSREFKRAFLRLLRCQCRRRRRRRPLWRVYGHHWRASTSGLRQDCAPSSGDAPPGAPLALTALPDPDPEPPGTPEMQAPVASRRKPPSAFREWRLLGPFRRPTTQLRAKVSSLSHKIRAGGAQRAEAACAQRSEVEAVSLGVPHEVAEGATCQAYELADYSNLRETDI

[13] = cited from earlier work
[14] = target: 5-HT7 (Homo sapiens, UniProt P34969); assay: Radioligand displacement, 5-HT7; format: binding
[15] = target: T3, α2B (Homo sapiens, UniProt P18089); assay: Radioligand displacement, α2B; format: binding
T3 sequence (P18089 1-450): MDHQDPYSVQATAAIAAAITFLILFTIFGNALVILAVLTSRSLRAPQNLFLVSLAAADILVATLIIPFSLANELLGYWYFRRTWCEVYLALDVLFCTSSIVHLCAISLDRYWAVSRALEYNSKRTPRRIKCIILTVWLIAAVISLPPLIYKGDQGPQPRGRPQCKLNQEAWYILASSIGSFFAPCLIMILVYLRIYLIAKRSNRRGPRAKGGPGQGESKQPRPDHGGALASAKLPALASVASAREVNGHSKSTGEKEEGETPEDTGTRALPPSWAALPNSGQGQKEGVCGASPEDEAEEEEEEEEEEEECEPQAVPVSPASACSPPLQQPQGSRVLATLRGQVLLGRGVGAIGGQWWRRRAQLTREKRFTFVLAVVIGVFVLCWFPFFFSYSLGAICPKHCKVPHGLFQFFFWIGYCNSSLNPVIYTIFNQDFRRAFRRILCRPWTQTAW

[16] = target: M5 (Homo sapiens, UniProt P08912); assay: Radioligand displacement, M5; format: binding
[17] = target: T4, α2C-adrenoceptor (α2C-AR) (Homo sapiens, UniProt P18825); assay: Radioligand displacement, α2C
T4 sequence (P18825 1-462): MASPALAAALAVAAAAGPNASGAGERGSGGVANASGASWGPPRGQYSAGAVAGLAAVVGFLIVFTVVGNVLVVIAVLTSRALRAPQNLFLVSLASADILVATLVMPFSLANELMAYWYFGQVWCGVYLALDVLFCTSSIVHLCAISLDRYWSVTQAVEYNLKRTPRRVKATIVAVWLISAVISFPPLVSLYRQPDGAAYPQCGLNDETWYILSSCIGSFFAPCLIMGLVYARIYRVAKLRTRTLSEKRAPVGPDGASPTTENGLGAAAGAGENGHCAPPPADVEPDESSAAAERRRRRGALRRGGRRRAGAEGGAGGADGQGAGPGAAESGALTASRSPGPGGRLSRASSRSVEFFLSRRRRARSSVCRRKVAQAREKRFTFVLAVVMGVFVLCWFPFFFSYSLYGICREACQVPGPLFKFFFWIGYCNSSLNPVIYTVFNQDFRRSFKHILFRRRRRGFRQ

[18] = Ki, [3H] radioligand QNB, Human, Cloned
[19] = [3H] radioligand Rauwolscine, Human, Cloned
[20] = K i, α2C, radioligand displacement (Table 1)
[21] = Ki, [3H] radioligand Rauwolscine, Human, Cloned
[22] = [3H] radioligand N-Methylspiperone, Human, Cloned, read-out: Ki
[23] = [3H] radioligand QNB, Human, Cloned, read-out: Ki

Chain of 5-HT7 (P34969 whole entry): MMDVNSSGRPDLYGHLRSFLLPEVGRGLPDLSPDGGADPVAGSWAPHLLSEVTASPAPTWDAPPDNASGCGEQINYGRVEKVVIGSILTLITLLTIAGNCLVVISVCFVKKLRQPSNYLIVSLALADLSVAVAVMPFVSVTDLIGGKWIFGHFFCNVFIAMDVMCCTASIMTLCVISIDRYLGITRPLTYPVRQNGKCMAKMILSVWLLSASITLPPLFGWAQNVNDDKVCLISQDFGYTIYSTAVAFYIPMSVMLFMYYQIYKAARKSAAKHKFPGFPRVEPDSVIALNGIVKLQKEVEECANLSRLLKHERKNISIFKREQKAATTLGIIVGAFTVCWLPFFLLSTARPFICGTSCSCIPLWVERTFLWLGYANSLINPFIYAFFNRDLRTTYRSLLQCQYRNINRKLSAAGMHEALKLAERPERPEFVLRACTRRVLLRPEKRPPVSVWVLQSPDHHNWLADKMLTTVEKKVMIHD
Chain of M1 muscarinic receptors (M1-R) (P11229 whole entry): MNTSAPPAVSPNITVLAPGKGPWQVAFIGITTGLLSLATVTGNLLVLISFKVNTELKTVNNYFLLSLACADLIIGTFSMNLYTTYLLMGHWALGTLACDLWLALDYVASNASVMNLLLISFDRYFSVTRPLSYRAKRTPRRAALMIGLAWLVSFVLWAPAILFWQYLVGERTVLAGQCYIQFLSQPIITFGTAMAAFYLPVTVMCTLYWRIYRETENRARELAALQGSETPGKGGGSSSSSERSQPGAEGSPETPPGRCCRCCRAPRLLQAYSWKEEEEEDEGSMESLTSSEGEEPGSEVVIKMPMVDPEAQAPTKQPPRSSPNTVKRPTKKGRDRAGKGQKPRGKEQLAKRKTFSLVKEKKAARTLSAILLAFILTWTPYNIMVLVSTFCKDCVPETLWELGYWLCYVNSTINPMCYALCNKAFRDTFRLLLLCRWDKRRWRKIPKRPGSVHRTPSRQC
Chain of M3 (P20309 whole entry): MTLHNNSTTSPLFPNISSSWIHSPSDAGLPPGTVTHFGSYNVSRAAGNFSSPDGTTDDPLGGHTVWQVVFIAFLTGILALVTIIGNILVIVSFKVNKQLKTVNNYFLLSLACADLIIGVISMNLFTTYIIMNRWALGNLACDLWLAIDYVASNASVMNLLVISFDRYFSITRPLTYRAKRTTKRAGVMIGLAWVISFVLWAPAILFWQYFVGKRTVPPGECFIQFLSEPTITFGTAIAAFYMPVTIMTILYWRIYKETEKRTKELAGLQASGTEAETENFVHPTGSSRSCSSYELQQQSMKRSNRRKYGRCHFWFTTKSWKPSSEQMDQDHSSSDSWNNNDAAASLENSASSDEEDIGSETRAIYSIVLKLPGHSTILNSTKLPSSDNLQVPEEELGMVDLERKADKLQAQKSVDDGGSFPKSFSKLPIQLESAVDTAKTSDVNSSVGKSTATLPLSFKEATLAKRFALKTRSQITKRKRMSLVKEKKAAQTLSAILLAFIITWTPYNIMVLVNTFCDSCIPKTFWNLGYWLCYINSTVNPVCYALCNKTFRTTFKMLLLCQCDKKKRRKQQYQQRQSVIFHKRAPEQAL
Chain of SERT (P31645 whole entry): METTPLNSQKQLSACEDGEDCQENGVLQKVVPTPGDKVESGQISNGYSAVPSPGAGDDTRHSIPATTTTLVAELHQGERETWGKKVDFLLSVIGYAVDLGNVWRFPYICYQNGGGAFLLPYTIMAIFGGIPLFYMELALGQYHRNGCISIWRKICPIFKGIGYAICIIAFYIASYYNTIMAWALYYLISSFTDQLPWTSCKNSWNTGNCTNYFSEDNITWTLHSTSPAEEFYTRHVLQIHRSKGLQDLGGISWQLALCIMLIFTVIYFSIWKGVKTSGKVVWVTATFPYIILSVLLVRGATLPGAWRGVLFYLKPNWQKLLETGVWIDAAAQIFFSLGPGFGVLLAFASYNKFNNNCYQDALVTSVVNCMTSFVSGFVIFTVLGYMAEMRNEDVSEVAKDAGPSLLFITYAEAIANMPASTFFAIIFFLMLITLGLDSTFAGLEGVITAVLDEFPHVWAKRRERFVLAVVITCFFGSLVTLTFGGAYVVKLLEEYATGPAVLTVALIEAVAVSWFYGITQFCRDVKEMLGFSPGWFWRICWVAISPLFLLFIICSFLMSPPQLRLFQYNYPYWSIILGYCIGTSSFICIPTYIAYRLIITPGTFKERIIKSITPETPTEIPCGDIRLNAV
Chain of H4 (Q9H3N8 whole entry): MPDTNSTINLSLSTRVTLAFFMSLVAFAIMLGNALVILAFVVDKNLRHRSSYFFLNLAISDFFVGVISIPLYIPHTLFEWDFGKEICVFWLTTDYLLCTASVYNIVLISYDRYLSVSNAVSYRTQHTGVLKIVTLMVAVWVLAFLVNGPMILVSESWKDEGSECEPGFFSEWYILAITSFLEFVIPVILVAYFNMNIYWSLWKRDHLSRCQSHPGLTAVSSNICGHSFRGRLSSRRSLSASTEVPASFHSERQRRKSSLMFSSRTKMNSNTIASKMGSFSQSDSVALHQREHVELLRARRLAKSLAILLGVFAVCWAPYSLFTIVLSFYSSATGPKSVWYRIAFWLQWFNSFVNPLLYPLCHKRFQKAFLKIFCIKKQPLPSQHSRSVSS
Chain of H2 (P25021 whole entry): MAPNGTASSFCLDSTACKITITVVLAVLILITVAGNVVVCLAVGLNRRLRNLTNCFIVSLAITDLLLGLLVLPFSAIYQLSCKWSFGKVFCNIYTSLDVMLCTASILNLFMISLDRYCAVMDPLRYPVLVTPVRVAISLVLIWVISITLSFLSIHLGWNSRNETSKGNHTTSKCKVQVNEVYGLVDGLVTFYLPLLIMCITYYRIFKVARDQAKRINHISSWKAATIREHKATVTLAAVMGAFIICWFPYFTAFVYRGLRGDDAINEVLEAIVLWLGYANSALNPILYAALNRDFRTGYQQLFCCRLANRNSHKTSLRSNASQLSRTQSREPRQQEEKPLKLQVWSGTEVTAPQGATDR
Chain of M5 (P08912 whole entry): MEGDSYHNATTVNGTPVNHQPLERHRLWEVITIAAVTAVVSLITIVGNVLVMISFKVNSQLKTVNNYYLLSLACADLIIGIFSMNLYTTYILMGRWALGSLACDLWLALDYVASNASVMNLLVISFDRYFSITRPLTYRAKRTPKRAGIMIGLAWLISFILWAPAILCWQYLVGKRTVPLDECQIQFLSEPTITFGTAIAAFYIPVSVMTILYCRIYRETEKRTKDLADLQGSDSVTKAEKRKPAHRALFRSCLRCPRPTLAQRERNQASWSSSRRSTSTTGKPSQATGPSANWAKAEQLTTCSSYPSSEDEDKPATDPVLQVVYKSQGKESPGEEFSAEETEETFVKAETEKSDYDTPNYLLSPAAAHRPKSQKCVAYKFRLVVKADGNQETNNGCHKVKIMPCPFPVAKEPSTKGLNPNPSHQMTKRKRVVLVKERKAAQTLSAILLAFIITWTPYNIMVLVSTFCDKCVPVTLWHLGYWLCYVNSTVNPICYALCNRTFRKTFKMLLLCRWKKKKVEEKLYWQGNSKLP
Chain of D3 (P35462 whole entry): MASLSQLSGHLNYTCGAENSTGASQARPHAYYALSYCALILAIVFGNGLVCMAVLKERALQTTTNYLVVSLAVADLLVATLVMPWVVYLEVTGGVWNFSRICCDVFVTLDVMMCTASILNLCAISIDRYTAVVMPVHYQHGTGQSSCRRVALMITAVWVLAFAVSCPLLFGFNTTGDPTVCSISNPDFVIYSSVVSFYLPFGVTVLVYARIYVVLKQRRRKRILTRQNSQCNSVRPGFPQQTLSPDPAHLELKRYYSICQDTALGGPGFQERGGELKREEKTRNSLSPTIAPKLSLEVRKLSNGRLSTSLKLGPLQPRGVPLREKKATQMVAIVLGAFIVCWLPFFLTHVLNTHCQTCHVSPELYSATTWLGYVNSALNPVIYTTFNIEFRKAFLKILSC
Chain of D2 (P14416 whole entry): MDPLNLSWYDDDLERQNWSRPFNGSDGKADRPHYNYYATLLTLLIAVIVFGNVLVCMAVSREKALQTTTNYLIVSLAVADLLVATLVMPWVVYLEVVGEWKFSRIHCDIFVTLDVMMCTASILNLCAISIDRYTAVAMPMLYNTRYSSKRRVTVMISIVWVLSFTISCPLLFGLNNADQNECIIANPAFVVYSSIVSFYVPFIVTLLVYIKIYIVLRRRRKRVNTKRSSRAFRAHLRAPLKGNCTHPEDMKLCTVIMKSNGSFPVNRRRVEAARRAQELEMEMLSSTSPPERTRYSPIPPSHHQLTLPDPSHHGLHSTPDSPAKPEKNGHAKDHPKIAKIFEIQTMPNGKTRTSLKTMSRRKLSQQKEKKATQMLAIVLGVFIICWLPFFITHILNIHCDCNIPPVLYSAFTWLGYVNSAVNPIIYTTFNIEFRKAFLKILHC
Chain of β2 (P07550 whole entry): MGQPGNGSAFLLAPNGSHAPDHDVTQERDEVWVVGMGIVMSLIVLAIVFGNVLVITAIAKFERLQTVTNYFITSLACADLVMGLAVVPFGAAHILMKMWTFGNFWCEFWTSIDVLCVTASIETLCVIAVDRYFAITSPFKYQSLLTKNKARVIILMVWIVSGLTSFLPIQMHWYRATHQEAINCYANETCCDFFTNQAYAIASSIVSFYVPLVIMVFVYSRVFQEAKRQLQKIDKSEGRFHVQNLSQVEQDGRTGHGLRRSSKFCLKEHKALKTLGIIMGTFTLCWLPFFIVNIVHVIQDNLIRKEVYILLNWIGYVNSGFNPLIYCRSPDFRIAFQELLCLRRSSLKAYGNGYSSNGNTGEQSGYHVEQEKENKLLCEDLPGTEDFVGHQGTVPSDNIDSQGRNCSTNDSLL

Row | Structure (SMILES) | Ki [1] | Ki [2] | Ki [3] | Ki [4] | Ki [5] | Ki [6] | toxic signs ([7]; 100 mg/kg) | Ki [8] | Ki [9] | Ki [10, 18] | Ki [11] | Ki [12] | peak unbound concentration in plasma ([13]; dose 10 mg/kg) | decline of plasma concentration ([13]; within 4 hours) | decline of plasma concentration ([13]; within 24 hours) | Ki [14] | Ki [15, 19] | Ki [16] | Ki [17, 20] | Ki [17, 21] | further results
1 | Oc1ccc2c3c1O[C@H]1c4[nH]c5c(c4C[C@@]4(O)[C@@H](C2)N(CC2CC2)CC[C@]314)C[C@@]1(O)[C@H]2Cc3ccc(O)c4c3[C@@]1(CCN2CC1CC1)[C@H]5O4 [nor-BNI, Nor-binaltorphimine] | ≥ 10 µM | ≥ 10 µM | ≥ 10 µM | ≥ 10 µM | ≥ 10 µM | ≥ 10 µM | no convulsions or deaths | ≥ 10 µM | ≥ 10 µM | ≥ 10 µM | ≥ 10 µM | ≥ 10 µM | 3 µM | over 80% | over 98% | ≥ 10 µM | 1.46 µM | ≥ 10 µM | 0.63 µM | 0.626 µM | Ki ([15]; binding curve File S1, Alpha2B Receptor, [125I]Clonidine (0.12 nM), Alpha2 Binding Buffer): 1.46 µM; Ki ([15]; α2B, radioligand displacement (Table 1)): 1.5 µM
2 | N=C(N)Nc1ccc2[nH]c3c(c2c1)C[C@@]1(O)[C@H]2Cc4ccc(O)c5c4[C@@]1(CCN2CC1CC1)[C@H]3O5 [GNTI, 5′-guanidinonaltrindole] | ≥ 10 µM | ≥ 10 µM | ≥ 10 µM | ≥ 10 µM | ≥ 10 µM | ≥ 10 µM | – | ≥ 10 µM | ≥ 10 µM | 5.37 µM | ≥ 10 µM | ≥ 10 µM | 2 µM | over 80% | over 98% | ≥ 10 µM | ≥ 10 µM | ≥ 10 µM | 2.2 µM | 2.23 µM | displacement from M1-R ([6]; at 10 µM, [3H]3-quinuclidinyl benzilate (QNB)): 49%; time to ataxia, convulsions and death ([7]; 30 mg/kg i.p.): ≤ 18 min; toxic signs ([7]; 30 mg/kg i.p.): ataxia, convulsions and death; Ki ([10]; Ki, binding curve File S1, M2 Receptor, [3H]QNB (0.1 nM), Muscarinic Binding Buffer): 5.36 µM; Ki ([10]; M2, radioligand displacement (Table 1), read-out: K i): 5.4 µM; estimate of the unbound brain concentration ([13]; after 39 mg/kg): 5 nM; peak unbound concentration in plasma ([13]; dose 39 mg/kg): 8 µM; Ki ([17]; Ki, binding curve File S1, Alpha2C Receptor, [125I]Clonidine (0.12 nM), Alpha2 Binding Buffer): 2.23 µM
3 | CC(C)[C@@H](CN1CC[C@@](C)(c2cccc(O)c2)[C@@H](C)C1)NC(=O)[C@H]1Cc2ccc(O)cc2CN1 [JDTic] | – | – | – | – | – | – | no convulsions or deaths | – | – | – | – | – | 0.1 µM | over 80% | over 98% | – | ≥ 10 µM | – | – | – | Ki [1, 22]: ≥ 10 µM; Ki [2, 23]: ≥ 10 µM; Ki ([3]; K i, H2, radioligand displacement (Table 1)): 1.8 µM; Ki ([3]; Ki, [3H] radioligand Tiotidine, Human, Cloned): 1.79 µM; Ki ([3]; Ki, binding curve File S1, H2 Receptor, [3H]Tiotidine (3 nM), Histamine Binding Buffer): 1.79 µM; Ki ([4]; [3H] radioligand Citalopram, Human, Cloned, read-out: Ki): ≥ 10 µM; Ki ([5]; [3H] radioligand LY278584, Human, Cloned, read-out: Ki): ≥ 10 µM; Ki [6, 23]: ≥ 10 µM; Ki ([8]; [3H] radioligand CGP12177, Human, Cloned, read-out: Ki): ≥ 10 µM; Ki [9, 22]: ≥ 10 µM; Ki [10, 23]: ≥ 10 µM; Ki ([10]; binding curve File S1, M2 Receptor, [3H]QNB (0.1 nM), Muscarinic Binding Buffer, read-out: Ki): > 10 µM; Ki ([11]; [3H] radioligand Histamine, Human, Cloned, read-out: Ki): ≥ 10 µM; Ki ([12]; read-out: Ki): ≥ 10 µM; Ki ([14]; [3H] radioligand LSD, Human, Cloned, read-out: Ki): ≥ 10 µM; Ki [16, 23]: ≥ 10 µM; Ki [17]: ≥ 10 µM
